For 15 molecules, Ki results are on record in patent US20230295200A1 (REGENTS OF THE UNIVERSITY OF MICHIGAN, priority 2022, published 2023).

One assay concerns the target T1, STAT6 protein (Homo sapiens, UniProt P42226).
T1 sequence (P42226 1-847): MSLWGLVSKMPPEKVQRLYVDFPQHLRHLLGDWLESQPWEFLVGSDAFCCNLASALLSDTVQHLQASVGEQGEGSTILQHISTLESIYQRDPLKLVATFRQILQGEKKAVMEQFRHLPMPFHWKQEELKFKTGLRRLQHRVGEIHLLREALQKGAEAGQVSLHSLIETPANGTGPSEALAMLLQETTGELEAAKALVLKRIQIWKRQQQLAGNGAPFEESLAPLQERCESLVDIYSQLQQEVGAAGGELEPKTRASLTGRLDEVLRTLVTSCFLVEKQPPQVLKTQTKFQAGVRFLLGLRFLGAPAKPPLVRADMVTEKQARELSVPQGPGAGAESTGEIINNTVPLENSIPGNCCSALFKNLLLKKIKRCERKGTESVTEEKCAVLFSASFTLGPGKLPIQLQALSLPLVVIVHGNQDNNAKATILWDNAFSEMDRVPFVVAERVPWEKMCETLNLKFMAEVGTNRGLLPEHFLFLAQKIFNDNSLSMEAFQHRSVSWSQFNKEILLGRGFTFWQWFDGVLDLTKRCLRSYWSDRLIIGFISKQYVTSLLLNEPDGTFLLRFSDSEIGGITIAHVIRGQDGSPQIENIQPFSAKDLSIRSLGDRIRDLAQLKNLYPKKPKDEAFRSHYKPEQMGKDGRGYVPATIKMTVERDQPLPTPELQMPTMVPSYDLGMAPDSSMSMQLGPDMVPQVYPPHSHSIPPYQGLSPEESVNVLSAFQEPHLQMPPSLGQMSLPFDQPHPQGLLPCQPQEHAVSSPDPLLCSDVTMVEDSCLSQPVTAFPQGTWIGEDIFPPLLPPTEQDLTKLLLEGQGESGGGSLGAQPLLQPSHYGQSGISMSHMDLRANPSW
In words: Fluorescence polarization (FP) binding assay, STAT6. The following applies: FP competition, 5 nM fluorescein-labeled tracer, 200 nM protein, PBS pH7.4; read-out: Binding STAT6. Summed up:
(§1)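 Each well holds 200 nM STAT5 and/or STAT6 with 5 nM fluorescent tracer in PBS pH 7.4 (0.01% BGG, 0.01% Tween-20, 2 mM DTT). Binding reaches equilibrium over 1 h at room temperature after brief shaking, and polarization data are fitted nonlinearly.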

Another assay concerns the target T2, STAT5A (Homo sapiens, UniProt P42229).
T2 sequence (P42229 1-794): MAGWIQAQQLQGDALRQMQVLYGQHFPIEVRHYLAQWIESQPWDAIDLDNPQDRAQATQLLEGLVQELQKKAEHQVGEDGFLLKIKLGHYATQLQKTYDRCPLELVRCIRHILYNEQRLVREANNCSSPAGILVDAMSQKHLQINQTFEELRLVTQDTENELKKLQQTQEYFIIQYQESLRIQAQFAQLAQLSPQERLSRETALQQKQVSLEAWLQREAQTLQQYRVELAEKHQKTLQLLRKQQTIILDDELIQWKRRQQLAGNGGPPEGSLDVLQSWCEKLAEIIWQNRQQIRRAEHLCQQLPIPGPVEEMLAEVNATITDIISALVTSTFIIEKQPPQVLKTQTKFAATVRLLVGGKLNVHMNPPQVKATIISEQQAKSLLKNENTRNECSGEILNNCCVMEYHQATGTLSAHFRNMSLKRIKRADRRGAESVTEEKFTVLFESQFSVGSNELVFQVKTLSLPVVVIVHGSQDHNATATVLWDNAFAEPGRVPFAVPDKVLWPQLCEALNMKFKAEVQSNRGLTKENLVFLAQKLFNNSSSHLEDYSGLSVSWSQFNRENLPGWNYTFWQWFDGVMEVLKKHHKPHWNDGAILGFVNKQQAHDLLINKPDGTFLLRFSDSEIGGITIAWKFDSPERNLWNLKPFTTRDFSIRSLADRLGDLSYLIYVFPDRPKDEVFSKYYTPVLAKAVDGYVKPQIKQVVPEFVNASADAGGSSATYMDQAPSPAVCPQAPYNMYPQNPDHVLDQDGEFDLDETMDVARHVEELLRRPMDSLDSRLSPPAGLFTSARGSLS
The assay is described as follows: Fluorescence polarization (FP) binding assay, STAT5A. The note with it: FP competition, 5 nM fluorescein-labeled tracer, 200 nM protein, PBS pH7.4. The essentials: as §1
(In fluorescence polarisation assays a small probe gives low polarisation when free and higher when bound to something large.)

Take `O=C(/C=C/c1ccc(C(F)(F)P(=O)(O)O)cc1)N[C@@H](CC1CCCCC1)C(=O)N1CCC[C@H]1C(=O)N1CCc2ccccc2C1` [Compound 24, ((4-((E)-3-(((S)-3-cyclohexyl-1-oxo-1-((S)-2-(1,2,3,4-tetrahydroisoquinoline-2-carbonyl)pyrrolidin-1-yl)propan-2-yl)amino)-3-oxoprop-1-en-1-yl)phenyl)difluoromethyl)phosphonic acid]: the Ki at STAT6 protein and on STAT5A was > 10 µM in each case.
As for `CC(C)(C)[C@H](NC(=O)c1cc2cc(C(F)(F)P(=O)(O)O)ccc2[nH]1)C(=O)N1CCC[C@H]1c1ncc(Cc2ccccc2)s1` [Compound 25, ((2-(((S)-1-((S)-2-(5-benzylthiazol-2-yl)pyrrolidin-1-yl)-3,3-dimethyl-1-oxobutan-2-yl)carbamoyl)-1H-indol-5-yl)difluoromethyl)phosphonic acid], the results for the Ki on STAT6 protein and on STAT5A were > 10 µM and 1 to 10 µM, respectively.
For `CC(C)(C)[C@H](NC(=O)/C=C/c1ccc(C(F)(F)P(=O)(O)O)cc1)C(=O)N1CCC[C@H]1c1ncc(Cc2ccccc2)s1` [Compound 26, ((4-((E)-3-(((S)-1-((S)-2-(5-benzylthiazol-2-yl)pyrrolidin-1-yl)-3,3-dimethyl-1-oxobutan-2-yl)amino)-3-oxoprop-1-en-1-yl)phenyl)difluoromethyl)phosphonic acid], the Ki on STAT6 protein and at STAT5A was > 10 µM throughout.
Consider `O=C(N[C@@H](Cc1ccncc1)C(=O)N1CCC[C@H]1C(=O)N1CCc2ccccc2C1)c1cc2cc(C(F)(F)P(=O)(O)O)ccc2[nH]1` [Compound 27, (difluoro(2-(((S)-1-oxo-3-(pyridin-4-yl)-1-((S)-2-(1,2,3,4-tetrahydroisoquinoline-2-carbonyl)pyrrolidin-1-yl)propan-2-yl)carbamoyl)-1H-indol-5-yl)methyl)phosphonic acid], for which the Ki on STAT6 protein was 1 to 10 µM; at STAT5A it was > 10 µM.
In the case of `O=C(NC(C(=O)N1CCC[C@H]1C(=O)N1CCc2ccccc2C1)C1CCNCC1)c1cc2cc(C(F)(F)P(=O)(O)O)ccc2[nH]1` (stereo partly drawn) [Compound 28, (difluoro(2-((2-oxo-1-(piperidin-4-yl)-2-((S)-2-(1,2,3,4-tetrahydroisoquinoline-2-carbonyl)pyrrolidin-1-yl)ethyl)carbamoyl)-1H-indol-5-yl)methyl)phosphonic acid], the Ki on STAT6 protein and at STAT5A was > 10 µM each time.
Turning to `O=C(/C=C/c1ccc(C(F)(F)P(=O)(O)O)cc1)NC(C(=O)N1CCC[C@H]1C(=O)N1CCc2ccccc2C1)C1CCNCC1` (stereo partly drawn) [Compound 29, (difluoro(4-((E)-3-oxo-3-((2-oxo-1-(piperidin-4-yl)-2-((S)-2-(1,2,3,4-tetrahydroisoquinoline-2-carbonyl)pyrrolidin-1-yl)ethyl)amino)prop-1-en-1-yl)phenyl)methyl)phosphonic acid], the Ki at STAT6 protein and on STAT5A was > 10 µM throughout.
As to `CC(C)(C)[C@H](NC(=O)c1cc2cc(C(F)(F)P(=O)(O)O)ccc2[nH]1)C(=O)N1CCC[C@H]1C(=O)Nc1nc(-c2ccccc2)cs1` [Compound 30, ((2-(((S)-3,3-dimethyl-1-oxo-1-((S)-2-((4-phenylthiazol-2-yl)carbamoyl)pyrrolidin-1-yl)butan-2-yl)carbamoyl)-1H-indol-5-yl)difluoromethyl)phosphonic acid], the Ki on STAT6 protein and at STAT5A was > 10 µM in each case.
In the case of `CC(C)(C)[C@H](NC(=O)c1cc2cc(C(F)(F)P(=O)(O)O)ccc2[nH]1)C(=O)N1CCC[C@H]1C(=O)Nc1ncc(-c2ccccc2)s1` [Compound 31, ((2-(((S)-3,3-dimethyl-1-oxo-1-((S)-2-((5-phenylthiazol-2-yl)carbamoyl)pyrrolidin-1-yl)butan-2-yl)carbamoyl)-1H-indol-5-yl)difluoromethyl)phosphonic acid], the Ki on STAT6 protein was > 10 µM; at STAT5A it was 0.1 to 1 µM.
As to `CN(C(=O)[C@@H]1CCCN1C(=O)[C@@H](NC(=O)c1cc2cc(C(F)(F)P(=O)(O)O)ccc2[nH]1)C(C)(C)C)C(c1ccccc1)c1ccccc1` [Compound 32, ((2-(((S)-1-((S)-2-(benzhydryl(methyl)carbamoyl)pyrrolidin-1-yl)-3,3-dimethyl-1-oxobutan-2-yl)carbamoyl)-1H-indol-5-yl)difluoromethyl)phosphonic acid], the Ki at STAT6 protein and at STAT5A was > 10 µM each time.
For `CC(C)(C)[C@H](NC(=O)c1cc2cc(C(F)(F)P(=O)(O)O)ccc2[nH]1)C(=O)N1CCC[C@H]1c1ncc(-c2ccccc2)[nH]1` [Compound 33, ((2-(((S)-3,3-dimethyl-1-oxo-1-((S)-2-(5-phenyl-1H-imidazol-2-yl)pyrrolidin-1-yl)butan-2-yl)carbamoyl)-1H-indol-5-yl)difluoromethyl)phosphonic acid], the Ki at STAT6 protein and at STAT5A was > 10 µM throughout.
For `CC(=O)N1CCC(C(NC(=O)c2cc3cc(C(F)(F)P(=O)(O)O)ccc3[nH]2)C(=O)N2CCC[C@H]2C(=O)N2CCc3ccccc3C2)CC1` (stereo partly drawn) [Compound 34, ((2-((1-(1-acetylpiperidin-4-yl)-2-oxo-2-((S)-2-(1,2,3,4-tetrahydroisoquinoline-2-carbonyl)pyrrolidin-1-yl)ethyl)carbamoyl)-1H-indol-5-yl)difluoromethyl)phosphonic acid], the Ki at STAT6 protein and on STAT5A was > 10 µM each time.
For the molecule `O=C(N[C@@H](CC1=CCN(Cc2ccccc2)CC1)C(=O)N1CCC[C@H]1C(=O)N1CCc2ccccc2C1)c1cc2cc(C(F)(F)P(=O)(O)O)ccc2[nH]1` [Compound 35, ((2-(((S)-3-(1-benzyl-1,2,3,6-tetrahydropyridin-4-yl)-1-oxo-1-((S)-2-(1,2,3,4-tetrahydroisoquinoline-2-carbonyl)pyrrolidin-1-yl)propan-2-yl)carbamoyl)-1H-indol-5-yl)difluoromethyl)phosphonic acid], the Ki at STAT6 protein and at STAT5A was > 10 µM in each case.
As to `O=C(N[C@@H](CC1CCNCC1)C(=O)N1CCC[C@H]1C(=O)N1CCc2ccccc2C1)c1cc2cc(C(F)(F)P(=O)(O)O)ccc2[nH]1` [Compound 36, (difluoro(2-(((S)-1-oxo-3-(piperidin-4-yl)-1-((S)-2-(1,2,3,4-tetrahydroisoquinoline-2-carbonyl)pyrrolidin-1-yl)propan-2-yl)carbamoyl)-1H-indol-5-yl)methyl)phosphonic acid], the Ki at STAT6 protein and on STAT5A was > 10 µM throughout.
For `CC(C)(C)[C@H](NC(=O)c1cc2cc(C(F)(F)P(=O)(O)O)ccc2s1)C(=O)N1CCC[C@H]1C(=O)N(c1ccc(I)cc1)c1ccc(C(=O)OCc2ccccc2)cc1` [Compound 37, ((2-(((S)-1-((S)-2-((4-((benzyloxy)carbonyl)phenyl)(4-iodophenyl)carbamoyl)pyrrolidin-1-yl)-3,3-dimethyl-1-oxobutan-2-yl)carbamoyl)benzo[b]thiophen-5-yl)difluoromethyl)phosphonic acid], the Ki at STAT6 protein was 0.1 to 1 µM; on STAT5A, 1 to 10 µM.
For `COC(=O)CCN(C(=O)[C@@H]1CCCN1C(=O)[C@@H](NC(=O)c1cc2cc(C(F)(F)P(=O)(O)O)ccc2s1)C(C)(C)C)c1ccccc1` [Compound 38, (difluoro(2-(((S)-1-((S)-2-((3-methoxy-3-oxopropyl)(phenyl)carbamoyl)pyrrolidin-1-yl)-3,3-dimethyl-1-oxobutan-2-yl)carbamoyl)benzo[b]thiophen-5-yl)methyl)phosphonic acid], the Ki at STAT6 protein and on STAT5A was 1 to 10 µM in each case.
